# Data from patent US6136323A, “Bacterial plasmin receptors as fibrinolytic agents” (University of Florida Research Foundation, Inc., priority 1994, dated 2000).
# Key:
# [1] = tested on: group C streptokinase; assay: Western blot probed with 125I-human plasmin in presence or absence of EACA; type: binding, group C streptococci; details: addition of EACA (1.0 mM)
# Description: (§1) Gels intended for Western blotting were equilibrated in 25 mM Tris, 0.2 M glycine pH 8.0 containing 20% v/v methanol (electroblot buffer) for 25 minutes. Protein blotting, from SDS-PAGE gels, was performed using the `Trans-Blot SD Semi-Dry` electrophoretic transfer cell (Bio Rad, Richmond, Calif.). Blots were blocked as described for the dot-blot procedure, and probed for 3-4 hours at room temperature with radiolabeled human plasmin in either the presence or absence of 1.0 mM EACA, to identify functionally active protein bands. In studies of antigenic properties of these proteins, blots were probed with rabbit anti-plasmin receptor antibody or anti-group C streptokinase antibody by incubation with […] IgG per ml of probing solution (approximately a 1:3000 dilution of antisera) for three hours and probed with ^125 I-streptococcal protein G containing 3×10^4 cpm/ml. For probing with mouse monoclonal antibodies specific for epitopes on group C streptokinase, blots were probed with a 1:100 dilution of the monoclonal antibody stock solution for three hours, followed by probing with goat antibody specific for mouse IgG at 1.0 μg/ml, followed by probing with ^125 I-streptococcal protein G containing 3×10^4 cpm/ml. Blots were then washed with 0.01 M EDTA pH 7.3, containing 1.0 M NaCl, 0.25% gelatin, 0.15% Tween 20. […]
# [2] = tested on: Mr ≈41,000 dalton plasmin binding protein of strain 64/14; assay: as above; set-up: species or system group A streptococcus; details: 1.0 mM EACA
# Description: as §1
# [3] = biological target: binding of plasmin to the group A streptococcus 64/14; assay: Inhibition of plasmin binding to bacteria by amino acids; details: pH 7.0, 37 C, 15 min, strain 64/14; read-out: concentration giving fifty percent inhibition of binding of plasmin to the bacteria
# Description: Labeled plasmin (100 μl containing approximately 2×10^4 cpm) was added to 200 μl VBS-gel containing varying concentrations of epsilon-aminocaproic acid (EACA), lysine, or arginine, and incubated at 37 C for 15 min. The pH of each solution was 7.0. One hundred μl of VBS-gel containing 10^7 bacteria (strain 64/14) were then added and the mixture was incubated at 37 C for 15 min. The bacterial suspensions were centrifuged at 1000 g for 7 min and washed twice with 2 ml of VBS-gel containing the same concentration of amino acid present during the incubation period. The percent inhibition of binding was calculated for duplicate experiments by comparison with binding in VBS-gel alone.
# [4] = tested on: Mr 48,000 plasminogen activator protein from strain 64/14; assay: Western blot probed with 125I-human plasmin in presence or absence of EACA; type: binding, group A streptococcus; details: addition of EACA (1.0 mM)
# Description: as §1
# [5] = tested on: plasmin prebound to the group A streptococcus; assay: Dissociation of prebound plasmin from bacteria by amino acids; details: compared with concentration inhibiting binding by 50%
# Description: The ability of EACA, lysine, or arginine to dissociate bound plasmin from the bacteria was examined in the following manner. Labeled plasmin was incubated with 10^7 bacteria in VBS-gel containing no amino acid at 37 C for 15 min. The bacteria were pelleted by centrifugation and washed twice with 2 ml on VBS-gel. After determining the radioactivity associated with the bacteria, the pellets were resuspended in solutions of VBS-gel containing varying concentrations of amino acid (pH 7.0) as described above. The mixtures were incubated at 37 C for 15 min and washed twice with VBS-gel containing the appropriate amino acid concentration. The radioactivity associated with the bacteria in duplicate experiments was again measured and the percentage dissociated was calculated.
# [6] = tested on: plasmin bound to strain 64/14; assay: Preparative elution of bound labeled plasmin from strain 64/14 with lysine; type: binding, group A streptococcus; details: 20 mM lysine in VBS-gel, room temperature, 30 min
# Description: Plasmin which had been bound to and eluted from strain 64/14 by treatment with lysine was also examined in similar binding studies. Eluted plasmin was obtained by incubating 2 ml of stock 10% wet weight/volume bacterial suspension (strain 64/14) with approximately 20 μg of labeled plasmin at room temperature for 45 min. This suspension was centrifuged at 1000 g for 10 min and washed once with 10 ml of VBS-gel, and the radioactivity associated with the bacterial pellet was measured. The pellet was then resuspended in VBS-gel containing 20 mM lysine and incubated at room temperature for 30 min. The suspension was centrifuged and the supernatant recovered. Approximately 90% of the radioactivity originally associated with the bacterial pellet was dissociated by the lysine treatment. The dissociated plasmin in the supernatant was the subjected to gel filtration of a G-25 column to separate lysine from plasmin. Fractions containing plasmin were collected and stored at -20 C.
# [7] = tested on: group A streptococcus 64/14; assay: Effect of pH and ionic strength on binding of labeled plasmin(ogen) to bacteria
# Description: To assess the effect of pH on the bacterium: plasmin (ogen) interaction, 50 μl of labeled plasminogen of plasmin (approximately 2×10^4 cpm) were added to 1.0 ml of VBS containing 0.05% Tween-20 adjusted to the appropriate pH. After 15 min at room temperature, 50 μl of VBS containing approximately 10^7 bacteria (strain 64/14) were added and the mixture was incubated at 37 C for 15 min. The bacterial suspensions were centrifuged at 1000 g for 7 min to separate bacteria from unbound labeled proteins and the pellets were washed twice with 2 ml of VBS at the appropriate pH. The radioactivity associated with the bacterial pellet in duplicate experiments was measured using a Beckman 5500 autogamma counter.
# To assess the effect of ionic strength on the bacterium:plasmin (ogen) interaction, similar studies were carried out in solutions containing different concentrations of NaCl with 0.05% Tween-20. The bacterial pellets were washed in the appropriate NaCl concentration to remove unbound labeled proteins.
# [8] = biological target: T1, human plasmin (Homo sapiens, UniProt P00747); assay: Western blot probed with 125I-labeled human plasmin (plasmin binding activity); details: SDS-PAGE
# T1 construct: from tissue
# Description: PAGE and protein blotting. SDS-polyacrylamide gel electrophoresis (PAGE) was carried out with a 10% (wt/vol) polyacrylamide separating gel and a 4% (wt/vol) polyacrylamide stacking gel according to the method of Laemmli (Laemmli, U.K. [1970] Nature 227:680-685). Gels for Western blotting (immunoblotting) were equilibrated, and separated proteins were transferred by methods described previously (Broder et al. [1991], supra). For studies of plasmin binding, nitrocellulose membranes were blocked for 1 hour at room temperature in NET-gel buffer. The blots were then incubated for 2 hours at room temperature with ^125 I-human plasmin to identify plasmin-binding protein bands (Broder et al., supra). The blots were washed in NET-gel and subjected to autoradiography at -70 C.
# Gels intended for Western blotting were equilibrated in 25 mM Tris, 0.2 M glycine pH 8.0 containing 20% v/v methanol (electroblot buffer) for 25 minutes. Protein blotting, from SDS-PAGE gels, was performed using the `Trans-Blot SD Semi-Dry` electrophoretic transfer cell (Bio Rad, Richmond, Calif.). Blots were blocked as described for the dot-blot procedure, and probed for 3-4 hours at room temperature with radiolabeled human plasmin in either the presence or absence of 1.0 mM EACA, to identify functionally active protein bands. […]
# [9] = biological target: plasminogen (Homo sapiens, UniProt P00747); assay: Plasminogen activator activity of separated proteins; type: biochemical
# [10] = tested on: group A streptococci strain 64/14; assay: Effect of Ca2+ and Mg2+ on binding of radiolabeled plasmin to bacteria; set-up: species or system group A streptococcus; details: VBS-gel with 0.00015 M Ca2+ and 0.001 M Mg2+ vs metal free VBS-gel with 0.15 M EDTA
# Description: Bindings of radiolabeled plasmin to group A streptococci strain 64/14 was studied in the following buffers: (1) VBS-gel containing 0.00015 M Ca^2+ and 0.001 M Mg^2+, or (2) metal free VBS-gel containing 0.15 M ethylenediaminetetraacetic acid (EDTA). In each case 400 μl of buffer was added to 100 μl of VBS-gel containing approximately 10^7 bacteria and 100 μl of VBS-gel containing 3×10^4 cpm of radiolabeled plasmin. After incubation at 37 C for 15 minutes, the mixtures were centrifuged at 1000 g for 7 min to separate bacteria from unbound radiolabel, the pellets were washed twice with 2 ml of the appropriate buffer, and radioactivity associated with the bacterial pellet in duplicate experiments was measured.
# Chain of plasminogen (P00747 20-810 limits assumed): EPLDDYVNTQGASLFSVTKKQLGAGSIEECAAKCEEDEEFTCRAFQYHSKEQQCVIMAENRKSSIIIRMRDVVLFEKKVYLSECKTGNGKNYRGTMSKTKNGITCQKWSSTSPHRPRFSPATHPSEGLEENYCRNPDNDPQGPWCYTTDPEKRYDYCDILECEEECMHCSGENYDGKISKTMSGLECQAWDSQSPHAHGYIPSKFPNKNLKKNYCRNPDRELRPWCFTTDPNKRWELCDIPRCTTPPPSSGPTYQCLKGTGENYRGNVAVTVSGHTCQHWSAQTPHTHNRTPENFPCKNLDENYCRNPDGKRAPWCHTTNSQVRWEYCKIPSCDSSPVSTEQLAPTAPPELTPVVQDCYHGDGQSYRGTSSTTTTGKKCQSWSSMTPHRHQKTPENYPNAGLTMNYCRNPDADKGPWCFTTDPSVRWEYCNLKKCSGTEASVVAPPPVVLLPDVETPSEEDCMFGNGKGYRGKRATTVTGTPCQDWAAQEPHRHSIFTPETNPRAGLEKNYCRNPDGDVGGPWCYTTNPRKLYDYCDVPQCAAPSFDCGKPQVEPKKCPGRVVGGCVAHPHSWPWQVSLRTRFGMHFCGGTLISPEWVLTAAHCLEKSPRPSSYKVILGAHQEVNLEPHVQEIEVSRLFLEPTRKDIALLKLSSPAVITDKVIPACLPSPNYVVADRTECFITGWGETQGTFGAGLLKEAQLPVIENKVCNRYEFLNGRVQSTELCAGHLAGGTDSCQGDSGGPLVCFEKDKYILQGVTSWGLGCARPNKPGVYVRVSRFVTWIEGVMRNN
molecule,measurement,setting,value
"NCCCCCC(=O)O [EACA, epsilon-aminocaproic acid]",effect on binding of plasmin to the reference group C streptokinase molecule,[1],no effect
same,"effect on binding of 125I-labeled human plasmin to the Mr ≈41,000 dalton protein in concentrated culture supernatant of strain 64/14",[2],inhibited
same,"effect on plasmin binding activity of Mr ≈41,000 dalton band in the mutanolysin extract of strain 64/14",[2],reduced significantly
same,IC50,[3],150 µM
same,"effect on binding of plasmin to the Mr 48,000 plasminogen activator protein from strain 64/14",[4],no effect
same,concentration of amino acid required to elute 50% of the bound plasmin,[5],approximately equivalent
N=C(N)NCCC[C@H](N)C(=O)O [arginine],IC50,[3],25000 µM
same,concentration of amino acid required to elute 50% of the bound plasmin,[5],approximately equivalent
NCCCC[C@H](N)C(=O)O [lysine],radioactivity originally associated with the bacterial pellet dissociated,[6],Approximately 90%
same,IC50,[3],2000 µM
same,concentration of amino acid required to elute 50% of the bound plasmin,[5],approximately equivalent
plasminogen,fraction bound to bacteria,[7]; 0.1 to 0.4 M NaCl,less than 10%
same,direct binding of offered counts to the bacteria,[7]; entire pH range tested (pH 5-9),less than 10%
same,binding to the bacteria at low ionic strength,[7]; ionic strength below 0.075 M NaCl,significant binding
"plasmin receptor: Mr ≈41,000 dalton plasmin binding protein extracted with mutanolysin from group A streptococcal strain 64/14 (protein) MVVKVGINGFGRIGRLAFRRIQNIEGVEVTRINDLTDPNMLAHLLKYDTTQGRFDGTVEVKEGGFEVNGNFIKVSAERDPENIDWATDGVEIVLEATGFFAKKEAAEKHLHANGAKKVVITAPGGNDVKTVVFNTNHDILDGTETVISGASCTTNCLAPMAKALHDAFGIQKGLMTTIHAYTGDQMILDGPHRGGDLRRARAGAANIVPNSTGAAKAIGLVIPELNGKLDGAAQRVPVPTGSVTELVVTLDKNVSVDEINSAMKAASNDSFGYTEDPIVSSDIVGVSYGSLFDATQTKVMEVDGSQLVKVVSWYDNEMSYTAQLVRTLEYFAKIAK",binding of 125I-labeled human plasmin on blot,[8],capable of binding to human plasmin
same,binding of 125I-labeled human plasmin on blot,"[8]; listed as Mr ≈41,000 dalton protein",retained fractional plasmin binding activity
same,plasminogen activating potential,[9]; affinity purified protein,lacked any plasminogen activating potential
same,plasminogen activator activity,[9]; extracted (mutanolysin) preparation from strain 64/14,no plasminogen activator activity
"plasmin: Human plasmin generated from radiolabeled plasminogen by incubation with urokinase (protein, UniProt P00747 20-580; P00747 581-810, looked up, Plasmin radiolabeled, Human plasmin generated from radiolabeled plasminogen by incubation with urokinase) Plasmin heavy chain A: EPLDDYVNTQGASLFSVTKKQLGAGSIEECAAKCEEDEEFTCRAFQYHSKEQQCVIMAENRKSSIIIRMRDVVLFEKKVYLSECKTGNGKNYRGTMSKTKNGITCQKWSSTSPHRPRFSPATHPSEGLEENYCRNPDNDPQGPWCYTTDPEKRYDYCDILECEEECMHCSGENYDGKISKTMSGLECQAWDSQSPHAHGYIPSKFPNKNLKKNYCRNPDRELRPWCFTTDPNKRWELCDIPRCTTPPPSSGPTYQCLKGTGENYRGNVAVTVSGHTCQHWSAQTPHTHNRTPENFPCKNLDENYCRNPDGKRAPWCHTTNSQVRWEYCKIPSCDSSPVSTEQLAPTAPPELTPVVQDCYHGDGQSYRGTSSTTTTGKKCQSWSSMTPHRHQKTPENYPNAGLTMNYCRNPDADKGPWCFTTDPSVRWEYCNLKKCSGTEASVVAPPPVVLLPDVETPSEEDCMFGNGKGYRGKRATTVTGTPCQDWAAQEPHRHSIFTPETNPRAGLEKNYCRNPDGDVGGPWCYTTNPRKLYDYCDVPQCAAPSFDCGKPQVEPKKCPGR Plasmin light chain B: VVGGCVAHPHSWPWQVSLRTRFGMHFCGGTLISPEWVLTAAHCLEKSPRPSSYKVILGAHQEVNLEPHVQEIEVSRLFLEPTRKDIALLKLSSPAVITDKVIPACLPSPNYVVADRTECFITGWGETQGTFGAGLLKEAQLPVIENKVCNRYEFLNGRVQSTELCAGHLAGGTDSCQGDSGGPLVCFEKDKYILQGVTSWGLGCARPNKPGVYVRVSRFVTWIEGVMRNN","amount bound by the bacteria, effect of divalent cations",[10],the same in the presence or absence of divalent cations
same,counts offered being bound by the group A streptococcus 64/14,"[7]; maximal binding, between pH 5 and 8, about 10^7 bacteria, 37 C, 15 min",approximately 60%
